Read-outs that look alike come from different tables or passages of the source.
How the values were obtained:
dopamine D1 receptor = molecular target: T1, dopamine D1 receptor (Rattus norvegicus, UniProt P18901); assay: binding to dopamine D1 receptor in homogenates from rat striatum
T1 construct: homogenates from rat striatum; from tissue; host or cells: rat striatum homogenate
Text: Ki is the affinity of tested compounds for the dopamine D1 receptor.

[1] = test system: methyl-phenidate-induced gnawing behaviour of mice; assay: antagonism of methylphenidate-induced stereotyped gnawing in mice; conditions: Mus musculus
Text: (§1) Following the method of Pedersen, V. and Christensen, A.V.: "Antagonism of methylphenidate-induced stereotyped gnawing in mice", Acta Pharmacol. et Toxicol. 31: 488-496, 1972, antagonism of dopamine-dependent, methyl-phenidate-induced gnawing behaviour of mice, was used to assess the effects of the present D-1 antagonists. Further, the ratio of ED50 values obtained using i.v. administration and oral administration, respectively, was taken as an index of the bioavailability of the test drugs.

in vivo [2] = conditions: mouse, in vivo
Text: as §1

in vivo [3] = assay: in vivo; parameters: species or system mongrel dogs; conditions: dog, po
Description: As already mentioned, the benzazepines of the general formula given in Table II with X representing halogen have a low oral bioavailability. […] Some test results are stated in the following.
The benzazepines are administered orally to dogs and subsequently samples of their blood plasma are analysed for the compound by a specific HPLC-method. The area under the curve showing the oral plasma concentration versus time is calculated. This area is designated […].
The absolute oral bioavailability, F, is calculated as the ratio between the area representing the oral dose and the area for the intravenous dose according to the formula [formula]

D1 dopamine = conditions: in words; Eur.J.Pharmacol. 91 (1983) 153; cited from earlier work
[4] = in words; Life Sci. 34 (1984) 1529; cited from earlier work
[5] = Table I, rat striatum homogenates, (+) enantiomere or racemic mixtures, read-out: Ki Dopamine D1 receptor
[6] = Table II, unit inferred, read-out: Ki

T1 sequence (P18901 whole entry): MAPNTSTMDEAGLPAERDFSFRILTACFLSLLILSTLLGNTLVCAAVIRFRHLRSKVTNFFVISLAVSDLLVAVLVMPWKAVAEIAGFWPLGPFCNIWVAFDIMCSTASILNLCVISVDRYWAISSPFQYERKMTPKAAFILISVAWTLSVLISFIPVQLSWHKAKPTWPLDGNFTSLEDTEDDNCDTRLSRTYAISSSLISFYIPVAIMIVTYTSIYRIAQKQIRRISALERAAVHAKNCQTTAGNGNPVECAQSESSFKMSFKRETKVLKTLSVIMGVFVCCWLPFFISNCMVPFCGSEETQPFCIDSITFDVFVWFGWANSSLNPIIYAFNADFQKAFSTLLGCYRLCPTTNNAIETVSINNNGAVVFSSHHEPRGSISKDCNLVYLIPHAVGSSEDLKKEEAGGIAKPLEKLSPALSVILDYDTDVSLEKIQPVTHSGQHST

Row | SMILES | Ki (dopamine D1 receptor; [5]) [nM] | Ki (dopamine D1 receptor; [6]) [nM] | ED50 ([1]; iv, read-out: ED50 i.v.) [mg/kg] | ED50 ([1]; po, read-out: ED50 p.o.) [mg/kg] | selectivity ratio (in vivo [2]) | further results
1 | CN1CCc2cc([N+](=O)[O-])c(O)cc2[C@@H]2c3ccccc3CC[C@H]21 (relative stereo) [Example 7, trans-[6,7,7a,8,9,13b]-hexahydro-2-hydroxy-7-methyl-3-nitro-5H-benzo[d]naphto[2,1-b]azepine] | 169 |  |  |  |  | 
2 | CN1CCc2cc([N+](=O)[O-])c(O)cc2C(c2ccccc2F)C1 (stereo not shown) [Example 1, 5-(2-fluorophenyl)-7-hydroxy-3-methyl-8-nitro-2,3,4,5-tetrahydro-1H-3-benzazepine] | 42 |  |  |  |  | 
3 | CN1CCc2cc([N+](=O)[O-])c(O)cc2[C@@H](c2ccccc2)C1 [Example 4, (R)-7-hydroxy-3-methyl-8-nitro-5-phenyl-2,3,4,5-tetrahydro-1H-3-benzazepine] | 13 | 13 | 5.4 | 11.9 | 2.2 | 
4 | CN1CCc2cc([N+](=O)[O-])c(O)cc2C(c2ccc3c(c2)CCC3)C1 (stereo not shown) [Example 6, 7-hydroxy-5-(5-indanyl)-3-methyl-8-nitro-2,3,4,5-tetrahydro-1H-3-benzazepine] | 88 |  |  |  |  | 
5 | CN1CCc2cc(Cl)c(O)cc2[C@@H](c2ccccc2)C1 [SCH 23390, (R)-8-chloro-7-hydroxy-2,3,4,5-tetrahydro-3-methyl-5-phenyl-1H-3-benzazepine] |  |  | 0.017 | 6.5 |  | D1 dopamine antagonism (D1 dopamine): selective D1 dopamine antagonist; bioavailability after oral administration [4]: poor bioavailability after oral administration; duration of action [4]: short duration of action

The next lines start with results.

Row | Ki (dopamine D1 receptor; [5]) [nM] | Ki (dopamine D1 receptor; [6]) [nM] | SMILES | ED50 ([1]; iv, read-out: ED50 i.v.) [mg/kg] | ED50 ([1]; po, read-out: ED50 p.o.) [mg/kg] | selectivity ratio (in vivo [2]) | further results
6 | 11 | 4.6 | CN1CCc2cc([N+](=O)[O-])c(O)cc2C(c2cccc3c2OCC3)C1 (single isomer, unassigned; (+)) [Example 5, (+)-5-(2,3-dihydrobenzofuran-7-yl)-7-hydroxy-3-methyl-8-nitro-2,3,4,5-tetrahydro-1H-3-benzazepine] | 0.11 | 1.9 | 17.3 | bioavailability (in vivo [3]): 65%
7 |  | 0.2 | CN1CCc2cc(Cl)c(O)cc2C(c2cccc3c2OCC3)C1 (stereo not shown) [8-chloro-7-hydroxy-3-methyl-5-(2,3-dihydrobenzofuran-7-yl)-2,3,4,5-tetrahydro-1H-3-benzazepine, reference compound] | 0.06 | 4.5 | 75 | bioavailability (in vivo [3]): 5.5%
8 | 28 |  | Cc1ccccc1C1CN(C)CCc2cc([N+](=O)[O-])c(O)cc21 (stereo not shown) [Example 3, 7-hydroxy-3-methyl-8-nitro-5(2-methyl-phenyl)-2,3,4 5-tetrahydro-1H-3-benzazepine] |  |  |  | 
